Measurements: US20060135587A1, “Method and compounds for promoting healing and reducing inflammation” (priority 2002, published 2006)
Read-outs that look alike come from different tables or passages of the source.

How the values were obtained:
[1] = oral dose used for the comparative medication; cited from earlier work
experimental granuloma = test: Cotton-wool granuloma (chronic proliferative inflammation) in rats; assay type: in vivo
Procedure: We investigated the ability of compound (2) to reduce the formation of granulation tissue in the inflammatory focus which develops at the site at which a non-sterile cotton-wool roll weighing 40 mg is implanted subcutaneously (Swingle and Shideman, 1972). Compound (2) was administered orally to male rats weighing 130-150 g at a dose of 100 mg/kg for 6 days before the cotton-wool roll was implanted, and then for 6 days at the same dose while the granuloma developed. Anti-inflammatory agents, such as ibuprofen and butadione, were used for comparison, using the same procedure. There were 10 rats in each group.
After 12 days the experiment was terminated, and the granulomas were excised, weighed, and the wet weight of the granulation tissue was measured. The dry mass of the granuloma was measured after drying for 24 hours at 70° C., and the exudative and proliferative stages of the granulomas were calculated. Statistical analysis was performed using the Student's parametric test.

[2] = tested on: acute Con A-induced inflammation; test: Acute Con A-induced inflammation (paw oedema) in mice; assay type: in vivo; settings: Table 3, male CBA mice
Procedure: Saline solution was similarly administered to the control animals. There were 10 mice in each group. After one hour, con A at a dose of 100 mkg/20 g of body weight was administered by sub-plantar injection into the plantar aponeurosis of the left paws of mice of both the experimental and control groups. The same amount of saline splution was injected into the contralateral paws. After one hour, the mice were killed and the experimental and control paws were weighed to assess the reaction index of the inflammation in the ankle-joint (Liubimov et al, 1999).
The anti-inflammatory effect of Compound 2 and Compound 7 was compared in male mice weighing 18-22 g, using the model described in Example 9. The ED50, i.e. the dose reducing paw ooedema by 50% one hour after injection of Concanavalin A, was calculated.

[3] = tested on: lesions of the gastric mucosa; test: Gastric lesions induced by electrostimulation of immobilised rats; assay type: in vivo
Procedure: (§1) The models used gastric ulcers induced by
a) Electrostimulation of immobilised rats for 3 hours;
(§2) The compounds were administered intraperitoneally at a dose of 20 mg/kg; in the cryogenic ulcer model compound 2 was administered either intraperitoneally (10 mg/kg) or orally (20 mg/kg twice daily, ie. a total of 40 mg/kg/day) and was compared to orally-administered gastrocepin (1 mg/kg twice daily, ie. a total of 2 mg/kg/day).

[4] = tested on: gastric secretory function; test: Gastric secretory function, chronic or acute tests; assay type: in vivo; settings: dogs or rats
[5] = tested on: lesions of the gastric mucosa; test: Gastric lesions induced by immobilization and hypothermia; assay type: in vivo, rats; parameters: % reduction of degree of ulceration / % reduction of ulcerated area: concentration or dose not given beside the values; settings: Protective effect, 30 minutes before the test
Procedure: as §1
b) Immobilization and hypothermia (induced by water cooling);
as §2

[6] = tested on: cryogenic ulcer of the gastric mucosa; test: Cryogenic gastric ulcer in rats; assay type: in vivo; settings: healing effect over the course of 14 days; twice daily, oral
Procedure: as §1
c) Ulcer created by local wounding with a cryogenic probe using a method similar to that described above for mouth ulcers.
as §2

[7] = tested on: liver after partial hepatectomy; test: Morphological study of the liver after partial hepatectomy; assay type: in vivo, rats
Procedure: Morphological methods are highly informative in the assessment of repair processes. Histological tests of the liver after partial hepatectomy were performed using generally accepted methods. Microscopic sections were stained with hematoxylin and eosin using Van Gieson's methodology. Liver tests after partial hepatectomy were performed on 8 groups of animals, totalling 37 rats. All animals were examined one week after hepatectomy.

[8] = tested on: regeneration of liver after partial hepatectomy; test: Liver regeneration after partial hepatectomy in rats; assay type: in vivo; settings: for Catalase E activity / DNA content (in mg/g of tissue) / Protein content / RNA content (mg/g of tissue) / SOD activity: 0.2 mM/kg; for Level of recovery: 0.2 mM/kg intraperitoneally, 7 days, hepatectomy alone = 100
Procedure: Partial hepatectomy was performed using the conventional method (Higgins and Anderson, 1931) by removing the left lateral and central lobes of the liver from 80 male white rats, weighing 180-200 g.
Compound 2, Compound 4, Compound 5 or Compound 6 was administered to the experimental groups intraperitoneally in equimolar doses of 0.1 mM/kg and 0.2 mM/kg. These optimal doses were determined in preliminary experiments. The control group received intraperitoneal injections of saline solution. The compounds were administered on the day after the operation and then one injection was given daily over the course of 7 days, since maximum growth of the liver mass in rats is observed in the first 7 days after partial hepatectomy (Solopaev, 1980).
The effectiveness of the compounds was compared to that of a combination of non-steroid anabolic regeneration stimulators which are used in the treatment of liver pathology, namely Riboxin and potassium orotate at a dose of 0.2 mM/kg each (Rychnev and Frolov, 1984).
For quantitative evaluation of the regeneration process in the liver the coefficient of regeneration completion as determined by the formula below was used: [formula] where
Stimulation of the regeneration of tissue after hepatectomy in response to different medicinal preparations is associated with an increase in the synthesis of nucleic acids, as indicated by the increase in the content of RNA and DNA in the regenerated tissue. Quantitative analysis of DNA and RNA was performed by centrifugation. […] The enzymic component of anti-oxidant protection was also assessed on the basis of the activity of catalase and superoxidedismutase (SOD).
5 ml of […] of HCIO4 solution were added to the sample (100 mg). In order to ensure complete sedimentation of the acid-insoluble fraction, the beakers were put in ice for 15 minutes. Then they were centrifuged for 10 minutes at 5000 revolutions per minute. The sediment was washed twice with 0.2 M HCIO4. After the final centrifugation, the walls of the beaker were carefully dried with gauze and filter paper. The sediment was ground down with a glass pestle, suspended in 1 ml of water and then 1 ml of 0.6 M KON solution was added at room temperature. Hydrolysis was performed over the course of 1 hour at 37° C., then the beakers were put in ice to stop the hydrolysis process. 4 ml of the 0.6 M solution were added to each beaker and the beakers were left in ice for another 15 minutes, then centrifuged for 15 minutes at 5000 revolutions per minute. The supernatant was used to determine the RNA by UV absorption at 260 nm and 290 nm compared to the control sample containing 0.4M of HCIO4). The amount of RNA in μg per 1 ml of the supernatant was calculated using the following formula: [formula] where C=is the RNA concentration (μg/ml)
DNA analysis was carried out on the sediment remaining after the alkaline hydrolysis used to determine RNA. 0.5 M of HCIO4 (5 ml per sample) was poured into the dried beaker containing the sediment. Hydrolysis was performed in a boiling water bath for 20 minutes. The amount of DNA in μg per 1 ml of the hydrolysate was calculated using the following formula: [formula] where C=is the DNA concentration (μg/ml). Catalase Activity
Catalase activity was determined using the permanganate method. The optimal amount of the substrate (3 ml of 1% H2O2) and 1 ml of the enzyme were added to 10 ml of phosphate buffer, pH 7.8. After 10 minutes the reaction was stopped by adding 1.5 ml of H2SO4 (50%). The remaining hydrogen peroxide was filtered with 0.1M of KMnO4 solution. Catalase activity was calculated on the basis that 1 ml of 0.1M of KMnO4 solution corresponds to […] of H2O2.
SOD activity was determined using the dianisidine method, which is based on the fact that under ultraviolet irradiation Riboflavin (Rb) is converted to an excited (ionised) state and therefore becomes able to attack reduced dianisidine (DH2). […]

[9] = tested on: cryogenic injuries of the sigmoid colon; test: Cryogenic damage of the colon, model of ulcerative colitis; assay type: in vivo, rats; settings: oral
Procedure: A model of cryogenic damage of the colon was used in this experiment to simulate ulcerative colitis. Cryogenic injuries of the sigmoid colon of rats were induced by pressing a metal rod of […] in diameter cooled in liquid nitrogen to the serous membrane of the colon for 10 seconds under ether anaesthesia.
Tests were performed on 67 male rats weighing 180-200 g, with 8 animals in each group. Animals were kept in separate cages, with normal food and water ad libitum. The test compounds were administered orally on the second day after the operation, and then daily until healing was complete. Compound 2 or Compound 6 was administered to test animals at a dose of 20-50 mg/kg. The following agents were used for comparison:
The nature of the healing of the ulcer injury was examined morphologically on days 1, 3 and 7. […] The inflammatory process extends beyond the injured area into the adjacent areas, and beyond the peritoneum into fatty connective tissue.

[10] = tested on: carrageenin-induced inflammation; test: Carrageenin-induced inflammation in intact and adrenalectomized rats; assay type: in vivo
Procedure: An acute inflammatory oedema was induced in intact and adrenalectomized male rats weighing 180-200 g by sub-plantar injection of 0.1 ml of 1% carrageenin solution into the left paw (Winter et al., 1962). The same volume of saline solution was injected into the contralateral paw. […] There were 10 rats in each group.
The degree of carrageenin-induced inflammation of the ankle joints was assessed at 3 hours after the induction of the inflammation, on the basis of the change in weight of the experimental and control paws (reaction index).

in vivo = settings: male, mouse, ip
Procedure: (§3) The acute toxicity of 1,3-dialkyl-4,5-bis (N-methylcarbamoyl)imidazolium salts was assessed following intraperitoneal injection into 200 white male mice weighing 18 to 20 g. Dead animals were counted daily after the administration of the test substance.

[11] = 10 mg/kg intra-peritoneally one hour before Con A
[12] = 50 mg/kg intra-peritoneally one hour before Con A
[13] = Healing effect over the course of 3 days
[14] = Protective effect, 30 minutes before the test
[15] = Adrenalectomized animals, 48 mg/kg orally 4 days + carrageenin

Procedure for white male mice: as §3

Compound: CCCCC1C(=O)N(c2ccccc2)N(c2ccccc2)C1=O [Butadione]
- ED50 values from the literature [1]: 60 mg/kg
- Granuloma weight (mg) Dry weight (experimental granuloma; 60 mg/kg): 145.4 ± 7.45 mg
- Granuloma weight (mg) Exudative stage (experimental granuloma; 60 mg/kg): 682.6 mg
- Granuloma weight (mg) Fresh weight (experimental granuloma; 60 mg/kg): 828.0 ± 76.68 mg
- Granuloma weight (mg) Proliferative stages (experimental granuloma; 60 mg/kg): 105.4 mg

Compound: 1,3-diethyl-4,5-bis(N-methylcarbamoyl)-imidazolium benzenesulfonate [Compound 3]
- Reaction index (%) [2, 11]: 9.5 ± 2.5 %
- Reaction index (%) [2, 12]: 9.5 ± 2.0 %
- % reduction of degree of ulceration [3, 13]: 26.5%
- Average number of lesions per animal [3, 13]: 2.5 ± 0.4
- % reduction of degree of ulceration [3, 14]: 50%
- % reduction of ulcerated area [3, 14]: 54%
- Area of lesion [3, 14]: 7.1 ± 4.1
- Average number of lesions per animal ([3]; Protective effect, 30 minutes before the test, 20 mg/kg intraperitoneally): 3.5 ± 0.4
- effect on gastric secretory function [4]: did not affect gastric secretory function
- % reduction of degree of ulceration [5]: 41%
- % reduction of ulcerated area [5]: 41%
- Area of lesion [5]: 7.2 ± 2.0
- Average number of lesions per animal ([5]; 20 mg/kg intraperitoneally): 6.8 ± 1.4
- % reduction of degree of ulceration [6]: 59%
- Average number of lesions per animal [6]: 7.7 ± 2.5
- LD50 (white male mice): over 500 mg/kg
- toxicity (white male mice): very low toxicity
- LD50 (white male mice; intraperitoneal injection, white male mice, 14 days observation): 1292 mg/kg

Compound: 1-methyl-3-ethyl-4,5-bis(N-methylcarbamoyl)-imidazolium salicylate [Compound 6]
- histological findings in the liver ([7]; 0.2 MM/kg, one week after hepatectomy): showed no undesirable effects
- Catalase E activity [8]: 20.0 ± 2.7 μgM/min/g tissue × 1000
- DNA content (in mg/g of tissue) [8]: 3.88 ± 0.17 mg/g of tissue
- Protein content [8]: 93.0 ± 14.0 Mg/g tissue
- RNA content (mg/g of tissue) [8]: 7.41 ± 0.16 mg/g of tissue
- SOD activity [8]: 100.0 ± 4.7 Units/g tissue
- Level of recovery [8]: 105.0
- indicators of healing relative to Compound 2 [9]: less pronounced

Compound: CC(C)Cc1ccc(C(C)C(=O)O)cc1 (stereo not drawn) [Ibuprofen, ibuprofen]
- ED50 values from the literature [1]: 48 mg/kg
- Granuloma weight (mg) Dry weight (experimental granuloma; 48 mg/kg): 143.2 ± 9.83 mg
- Granuloma weight (mg) Exudative stage (experimental granuloma; 48 mg/kg): 670.8 mg
- Granuloma weight (mg) Fresh weight (experimental granuloma; 48 mg/kg): 814.0 ± 63.72 mg
- Granuloma weight (mg) Proliferative stages (experimental granuloma; 48 mg/kg): 103.2 mg
- Inhibition of oedema(%) ([10]; 48 mg/kg 4 days + carrageenin): 63.39%
- Reaction index (%) ([10]; 48 mg/kg 4 days + carrageenin): 15.88 ± 1.88 %
- Inhibition of oedema(%) [10, 15]: 57.90%
- Reaction index (%) [10, 15]: 18.12 ± 1.82 %

Compound: CC[n+]1cn(C)c(C(=O)NC)c1C(=O)NC [Compound 4, 1-methyl-3-ethyl-4,5-bis(N-methylcarbamoyl)-imidazolium chloride]
- histological findings in the liver ([7]; rat, in vivo): showed no undesirable effects
- LD50 at 14 days (in vivo): 1220 mg/kg
- Reaction index (%) [2, 11]: 14.1 ± 2.0%
- Reaction index (%) [2, 12]: 12.4 ± 0.4 %
- Catalase E activity [8]: 18.0 ± 2.6 μgM/min/g tissue × 1000
- DNA content (in mg/g of tissue) [8]: 3.72 ± 0.09 mg/g of tissue
- Protein content [8]: 85.5 ± 10.6 Mg/g tissue
- RNA content (mg/g of tissue) [8]: 7.14 ± 0.2 mg/g of tissue
- SOD activity [8]: 90.0 ± 3.3 Units/g tissue
- Level of recovery [8]: 128.3
- toxicity (white male mice): very low toxicity
